Assay results: patent US6924296B2, “Antithrombotic agents” (Eli Lilly and Company, priority 2000, dated 2005)
Counter-ions that a name gives are not always drawn.

Molecular target: human factor Xa (Homo sapiens, UniProt P00742)
Test: Factor Xa chromogenic substrate inhibitor binding affinity assay (apparent Kass)
Details: 1.34 nM human factor Xa, 0.18 mM BzIle-Glu-Gly-Arg-pNA; mean value; read-out: Kass (apparent association constant) (converted)
Method: The inhibition by a compound of the inhibition of a serine protease of the human blood coagulation system or of the fibrinolytic system, as well as of trypsin, is determined in vitro for the particular enzyme by measuring its inhibitor binding affinity in an assay in which the enzyme hydrolyzes a particular chromogenic substrate, for example as described in Smith, G. F.; Gifford-Moore, D.; Craft, T. J.; Chirgadze, N.; Ruterbories, K. J.; Lindstrom, T. D.; Satterwhite, J. H. Efegatran: A New Cardiovascular Anticoagulant. New Anticoagulants for the Cardiovascular Patient; Pifarre, R., Ed.; Hanley & Belfus, Inc.: Philadelphia, 1997; pp. 265-300. The inhibitor binding affinity is measured as apparent association constant Kass which is the hypothetical equilibrium constant for the reaction between enzyme and the test inhibitor compound (I).
Enzyme+I⇄Enzyme−I [formula]
Conveniently, enzyme inhibition kinetics are performed in 96-well polystyrene plates and reaction rates are determined from the rate of hydrolysis of appropriate p-nitroanilide substrates at 405 nm using a Thermomax plate reader from Molecular Devices (San Francisco, Calif.). […] The rates of chromogenic substrate hydrolysis reactions provide a linear relationship with the enzymes studied such that free enzyme can be quantitated in reaction mixtures. […]

Chain of human factor Xa (P00742 235-488 limits assumed): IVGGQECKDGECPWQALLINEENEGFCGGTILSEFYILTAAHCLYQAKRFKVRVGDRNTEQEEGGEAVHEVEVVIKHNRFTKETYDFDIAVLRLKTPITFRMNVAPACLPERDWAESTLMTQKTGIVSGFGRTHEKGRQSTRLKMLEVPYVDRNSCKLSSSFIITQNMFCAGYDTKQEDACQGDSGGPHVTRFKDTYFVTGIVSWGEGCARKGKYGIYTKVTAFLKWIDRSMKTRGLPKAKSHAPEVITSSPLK
Chain of human factor Xa (P00742 41-179 partner limits assumed): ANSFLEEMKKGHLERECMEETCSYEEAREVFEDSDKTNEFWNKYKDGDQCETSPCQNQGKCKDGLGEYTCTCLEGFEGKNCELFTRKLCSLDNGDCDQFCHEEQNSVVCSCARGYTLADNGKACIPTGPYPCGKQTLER

Kd: 472 nM
SMILES: O=C(NC1CCN(C(=O)C2CCN(c3ccncc3)CC2)C1)c1ccc2cc[nH]c2c1 (stereo not shown) [Example 1, 3-[(6-Indolyl)carbonyl]amino-1-[[1-(4-pyridinyl)piperidin-4-yl]carbonyl]pyrrolidine Hydrochloride Salt]
